The test system of the test is PC-3 M-luc cells. The test can be described thus: PC-3 peritibial implant model of cancer bone metastasis. Type of test: in vivo, mouse. As to conditions: oral dose of 30 mg/kg twice daily; lesion score of 4 in vehicle-treated animals; scale 0-4. The text has this: PC-3 Peritibial Implant Model of Cancer Bone Metastasis
To evaluate in vivo anti-cancer activity of compounds of formula I, the PC-3 M-luc peritibial injection model of bone invasiveness model was employed. Briefly, PC-3 M-luc cells were obtained from Xenogen Corporation (Caliper Life Sciences) and expanded using MEM media modified with L-Glutamine (Cell Gro® #10-045-CV) supplemented with 10% fetal bovine serum, 1% penicillin-streptomycin-glutamine, 1% non-essential amino acids, and 1% MEM vitamins in 5% CO2 atmosphere at 37° C. Six to 7 week old male nude mice (Crl:NU-Foxn1nu) were obtained from Charles River Laboratories. Test mice were implanted peritibially on Day 0 with 1×10^6 cells/mouse (0.1 ml) using an insulin syringe with a fixed 28-gauge needle. The needle was inserted at the ankle between the tibia and fibula until the bevel of the needle reached approximately half way between the knee and ankle. Treatments began on Day 0. Animals were dosed by oral gavage twice daily for the study duration. […]
Isosurface volume renderings were used to delineate lesions in the hind limbs. […] Lesions in the right hind limb were scored with values of 0, 1, 2, 3, or 4 based on a qualitative assessment of lesion size as defined by: • 0: Normal Bone • 1: Minimal lesions. […]

As to `CCN1CCN(C(=O)Nc2ccc(Oc3ccnc(-c4cnn(C)c4)c3)c(C)n2)C1=O` [Example 42, 3-ethyl-N-(6-methyl-5-((2-(1-methyl-1H-pyrazol-4-yl)pyridin-4-yl)oxy)pyridin-2-yl)-2-oxoimidazolidine-1-carboxamide], the lesion score is recorded as 2.

The values above are taken from patent publication US9133183B2, “Imidazolidinones and analogs exhibiting anti-cancer and anti-proliferative activities” (Deciphera Pharmaceuticals, LLC, priority 2013, dated 2015).
